Data set [1] relates to mice. The data set can be described thus: Rotarod test. Type of data set: in vivo. As to conditions: 3c 5 mg/kg i.p.; control 154 ± 20 s, p = 0.137. The method, then: (§1) The ability of effective doses of bisuracil 2b (0.01 mg/kg) and bisuracil 3c (5 mg/kg) to induce incapacitation was evaluated. Locomotor activity, measured as the total distance travelled, and exploratory behaviour, assessed by the number of rearings (head inclinations) and head dips, were evaluated using the open-field test. Additionally, motor coordination was analysed using the rotarod test, where the ability of mice to stay on the rotating rod was recorded. The compounds were administered i.p. 30 min before testing, while the control group received an equivalent volume of the vehicle.
To analyse motor function, rotarod and open-field tests were carried out. Mice were randomly divided into 3 groups (n = 12): a control group of mice and groups of mice treated with tested compounds. Tests were conducted 1 h after compound exposure. To assess motor function, mice were first placed on a rotarod treadmill (Ugo Basile, Italy). Rotation speed was fixed at 15 rpm, and the time that each mouse remained on the rod was recorded as the score, with a maximum duration of 300 s per trial. Each mouse underwent 3 trials. […] To assess motor function, the distance travelled in centimetres in the arena was measured, using VideoMot2 software (Version 8.02 (131) 03-07-17 (TSE Systems, Bad Homburg, Germany).
(In general: In the rotarod test animals must keep their balance on a rotating rod.)

Another data set concerns the target T1, brain AChE (Mus musculus, UniProt P21836).
T1 construct: Whole-brain homogenates were prepared in a Potter homogeniser; from tissue; host or cells: whole brain of CD-1 mice
T1 sequence (P21836 32-614): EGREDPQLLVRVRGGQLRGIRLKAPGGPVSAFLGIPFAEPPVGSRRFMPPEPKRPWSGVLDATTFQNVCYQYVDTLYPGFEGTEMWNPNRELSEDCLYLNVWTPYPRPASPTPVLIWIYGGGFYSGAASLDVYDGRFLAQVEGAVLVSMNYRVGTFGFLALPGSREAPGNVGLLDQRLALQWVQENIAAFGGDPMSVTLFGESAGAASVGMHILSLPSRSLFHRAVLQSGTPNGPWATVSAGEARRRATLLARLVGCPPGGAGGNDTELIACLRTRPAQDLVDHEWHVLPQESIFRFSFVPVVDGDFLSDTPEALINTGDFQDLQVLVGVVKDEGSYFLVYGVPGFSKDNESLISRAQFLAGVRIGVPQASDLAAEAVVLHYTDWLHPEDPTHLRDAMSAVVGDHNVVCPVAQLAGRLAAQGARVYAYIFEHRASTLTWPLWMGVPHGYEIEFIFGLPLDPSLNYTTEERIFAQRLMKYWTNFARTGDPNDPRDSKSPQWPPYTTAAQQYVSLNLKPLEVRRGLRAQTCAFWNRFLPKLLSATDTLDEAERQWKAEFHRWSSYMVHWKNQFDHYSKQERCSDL
The data set can be described thus: Brain AChE inhibition in vivo. Further details: species or system mice. Particulars: ip. The method, then:
Bisuracil 3c was identified as the most promising for the inhibition of brain AChE in vivo. […].
For the brain AChE inhibition assay, the brains of mice were removed 30 min after i.p. injection of the tested compound (experimental group, n = 6 mice) or following i.p. vehicle injection (control group, n = 6 mice). The brains were subsequently frozen in liquid nitrogen. Whole-brain homogenates were prepared in a Potter homogeniser with 0.05 M Tris–HCl, 1% Triton X–100, 1M NaCl, and 2 mM ethylenediaminetetraacetic acid (pH 7.0; 4 °C; 1 part brain to 2 parts of buffer). The homogenate was centrifuged (14,000× g rpm; t = 4 °C) for 10 min using an Eppendorf 5430R centrifuge with an FA–45–30–11 rotor (Eppendorf AG, Hamburg, Germany). AChE activity in brain homogenates was measured using the method described by Dingova et al. with modification. […] The production of yellow 5–thio–2–nitro–benzoate anion resulting from the reduction of DTNB by thiocholine (the product of enzymatic hydrolysis of ATCH) was measured spectrophotometrically using a Shimadzu UV-1800 spectrophotometer (Shimadzu Co., Kyoto, Japan) according to Ellman’s method. The rate of thiocholine production over 20 min (from 10 to 30 min) was calculated. […] AChE activity was expressed in relation to the amount of total protein, which was determined by the Bradford method.

In another data set the target is T2, human AChE (Homo sapiens, UniProt P22303).
T2 construct: purchased Sigma-Aldrich
The data set can be described thus: In vitro cholinesterase inhibition (Ellman), AChE. Type of data set: biochemical. Particulars: Table 2; human AChE; read-out: IC50 AChE. The method, then:
(§2) Inhibitory activities of the tested compounds against AChE and BChE were measured according to Ellman et al.. Enzyme-catalysed hydrolysis of ATCHh was carried out at 25 °C in 0.1 M phosphate buffer (pH 8.0) containing 0.25 U AChE, 1 mM ATCHh as substrates, and 0.1 mM of DTNB. In experiments with BuChE, 0.1 M phosphate buffer (pH 7.0) and BuTChh as a substrate were used. The tested compounds were pre-incubated with the enzyme for two minutes prior to the addition of the substrate and the subsequent recording of hydrolysis kinetics. […] A sample without an inhibitor was used as a control (100% cholinesterase activity). A sample without a substrate was used as a blank. Experiments were performed in triplicate.
Background: In Ellman's method for cholinesterases, released thiocholine reacts with DTNB.

The subject of data set [2] is mice. The data set can be described thus: Open-field test. In kind it is in vivo. Particulars: 2b 0.01 mg/kg, 3c 5 mg/kg, i.p. Here is the method:
as §1
To analyse motor function, rotarod and open-field tests were carried out. Mice were randomly divided into 3 groups (n = 12): a control group of mice and groups of mice treated with tested compounds. Tests were conducted 1 h after compound exposure. To assess motor function, mice were first placed on a rotarod treadmill (Ugo Basile, Italy). Rotation speed was fixed at 15 rpm, and the time that each mouse remained on the rod was recorded as the score, with a maximum duration of 300 s per trial. Each mouse underwent 3 trials. After recording the length of time that mice managed to remain on the rotarod (latency to fall), the average of three trials was used for further analysis. Following the rotarod test, motor function was studied in an open field apparatus (Open Science, Krasnogorsk, Russia), as described in [39]. The numbers of rearing and head dips were estimated as indexes of exploratory activity. To assess motor function, the distance travelled in centimetres in the arena was measured, using VideoMot2 software (Version 8.02 (131) 03-07-17 (TSE Systems, Bad Homburg, Germany).

The target of the next data set is T3, BChE from human plasma (Homo sapiens, UniProt P06276).
T3 construct: butyrylcholiesterase from human plasma; purchased Sigma-Aldrich; host or cells: human plasma
The data set can be described thus: In vitro cholinesterase inhibition (Ellman), BuChE. Type of data set: biochemical. Particulars: Table 2; human BuChE; read-out: IC50 BuChE. The method, then: as §2

Where “and” joins values, the source holds several entries; their conditions need not be identical. Equal values may be shown once.

T2 sequence (P22303 32-614): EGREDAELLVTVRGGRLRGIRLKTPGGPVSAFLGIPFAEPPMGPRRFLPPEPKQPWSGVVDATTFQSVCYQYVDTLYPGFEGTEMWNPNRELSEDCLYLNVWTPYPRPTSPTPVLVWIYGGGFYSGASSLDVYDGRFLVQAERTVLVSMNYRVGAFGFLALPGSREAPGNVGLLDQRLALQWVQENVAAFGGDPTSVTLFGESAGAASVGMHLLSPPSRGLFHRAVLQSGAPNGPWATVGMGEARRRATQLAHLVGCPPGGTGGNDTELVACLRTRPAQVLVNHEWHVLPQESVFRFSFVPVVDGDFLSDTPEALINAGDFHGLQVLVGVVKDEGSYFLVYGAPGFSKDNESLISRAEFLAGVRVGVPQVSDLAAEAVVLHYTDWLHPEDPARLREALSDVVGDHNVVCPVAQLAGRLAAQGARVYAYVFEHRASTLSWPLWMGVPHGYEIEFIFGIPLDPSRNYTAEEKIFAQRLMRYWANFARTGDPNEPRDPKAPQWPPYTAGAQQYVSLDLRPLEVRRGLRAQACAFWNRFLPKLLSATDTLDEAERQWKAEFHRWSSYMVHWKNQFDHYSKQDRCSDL
T3 sequence (P06276 29-602): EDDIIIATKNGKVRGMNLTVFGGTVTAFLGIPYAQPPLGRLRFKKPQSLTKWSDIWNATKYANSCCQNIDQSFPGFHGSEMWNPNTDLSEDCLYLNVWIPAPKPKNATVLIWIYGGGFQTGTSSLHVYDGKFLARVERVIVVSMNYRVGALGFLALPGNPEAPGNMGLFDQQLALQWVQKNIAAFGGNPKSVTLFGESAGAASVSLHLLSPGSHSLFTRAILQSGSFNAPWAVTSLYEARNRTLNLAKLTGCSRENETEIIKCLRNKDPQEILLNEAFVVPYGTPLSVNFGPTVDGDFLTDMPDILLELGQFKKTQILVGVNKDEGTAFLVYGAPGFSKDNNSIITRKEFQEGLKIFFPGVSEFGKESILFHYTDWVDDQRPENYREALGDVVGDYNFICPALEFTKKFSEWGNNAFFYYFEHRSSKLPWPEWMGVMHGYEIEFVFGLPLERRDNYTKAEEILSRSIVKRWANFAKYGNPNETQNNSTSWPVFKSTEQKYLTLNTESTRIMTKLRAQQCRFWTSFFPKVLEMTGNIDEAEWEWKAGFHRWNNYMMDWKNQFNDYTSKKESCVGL

A word on the inhibition: it is the change of the read-out against control, counted positive when it falls. As a reminder, the IC50 is the midpoint of a concentration-inhibition curve. On to `CCN(CCCCCn1c(=O)ccn(CCCCCn2c(C)cc(=O)n(C)c2=O)c1=O)Cc1ccccc1C#N` [3c], for which the “mean fall time (rotarod)” value in the data set on mice [1] was determined as 170 ± 19 s. At brain AChE, this molecule yielded an inhibition at 5 mg/kg of 14.9 ± 3.8% and an inhibition at 10 mg/kg of 54.2 ± 6.6%. Besides, the IC50 on human AChE was 2.78 nM and 2.8 nM. Besides, in the data set on mice [2], the “distance travelled (open field) vs control group” value was “no significant differences” and the “number of rearings or head dips (open field)” value is “neither of the tested compounds significantly influenced”. The IC50 on BChE from human plasma came out at 28000 nM.
